In patent US20210115104A1, “AMYLIN ANALOGUES” (Zealand Pharma A/S, priority 2015, published 2021):
pEC50: −log10 of the molar value. *1 amine or outer side, *2 acyl side, *3 side chain or, on linkers, in order; H or OH if unused. Where a SMILES comes first, the peptide text is derived from it. Bridges are numbered along the chain shown (N, C = ends). [ ]: non-standard residue; d: D form. The star is where a group is joined. C20 diacid = O=C(O)CCCCCCCCCCCCCCCCCCC(=O)*; Pro(4R-NH2) = N[C@H]1CN[C@H](C(=O)O)C1; γGlu = O=C(O)[C@H](CCC(=O)[*:2])N[*:1]; Hyp = O=C(O)[C@@H]1C[C@@H](O)CN1; NMeI = CC[C@H](C)[C@H](NC)C(=O)O; Sar = CNCC(=O)O

target: T1, human calcitonin receptor (hCTR2) (Homo sapiens, UniProt P30988); assay: hCTR2 cAMP assay (AlphaScreen) in COS7 cells; type: cell-based; conditions: cAMP induction, COS7 cells expressing hCTR2; Table 1; read-out: hCTR2 EC50
T1 construct: expressed in transfected cells
T1 sequence (P30988 25-474): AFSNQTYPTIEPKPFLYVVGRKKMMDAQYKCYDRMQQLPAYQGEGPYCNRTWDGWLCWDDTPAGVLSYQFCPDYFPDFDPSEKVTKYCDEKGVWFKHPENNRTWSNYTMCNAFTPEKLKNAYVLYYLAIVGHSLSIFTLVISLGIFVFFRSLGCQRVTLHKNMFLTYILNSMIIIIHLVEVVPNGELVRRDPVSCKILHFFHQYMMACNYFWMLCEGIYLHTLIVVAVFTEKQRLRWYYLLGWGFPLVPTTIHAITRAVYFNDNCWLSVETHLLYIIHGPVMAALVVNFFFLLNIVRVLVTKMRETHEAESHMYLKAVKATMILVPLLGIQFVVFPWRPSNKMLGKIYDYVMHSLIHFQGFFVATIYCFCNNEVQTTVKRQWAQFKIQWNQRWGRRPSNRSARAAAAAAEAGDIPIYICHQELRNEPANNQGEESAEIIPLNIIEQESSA
Excerpt: The cell line COS7, originating from African Green Monkey kidney fibroblast cells, was used for establishment of the stable cell lines described below. The COS7 cellular background was used due to it being RAMP naïve, and as such it provides the best available system for testing of the monomeric hCTR and different heterodimeric amylin receptor subtypes functionally generated by introduction of the individual RAMPs.
A cell line expressing the human calcitonin receptor (hCTR2) was generated in the COS7 cellular background as stable clones. In brief, hCTR2 (GI: 4502547) was amplified by PCR using primers encoding terminal restriction sites for subcloning. The 5′-end primers additionally encoded a near Kozak consensus sequence to ensure efficient translation. The fidelity of the DNA encoding the receptor was confirmed by DNA sequencing. The PCR products encoding the receptor were subcloned into a mammalian expression vector containing a neomycin (G418) resistance marker. The mammalian expression vector encoding the receptor was transfected into COS7 cells by a standard liposome transfection method. 48 hours post-transfection, cells were seeded for limited dilution cloning and selected with 1 mg/ml G418 in the culture medium. After 3 weeks, surviving colonies of hCTR2-expressing cells were picked, propagated and tested in the amylin efficacy assay as described in Example 3 below. One hCTR2-expressing clone was chosen for compound profiling.
In vitro activity of test peptides at the hCTR2 and hAMYR3 receptors was assessed by measuring the induction of cAMP following stimulation of the receptor using the AlphaScreen® cAMP Assay kit from Perkin-Elmer.
Briefly, COS7 cells expressing hCTR2 (see Example 2, above) were seeded at 30-40,000 cells per well in 96-well microtiter plates coated with 0.01% poly-L-lysine, and grown for 1 day in culture in 100 μl growth medium [DMEM, 10% FCS, Penicillin (100 IU/ml), Streptomycin (100 μg/ml)]. On the day of analysis, growth medium was removed and the cells were washed once with 200 μl Tyrode buffer [Tyrode's Salts (9.6 g/I), 10 mM HEPES, pH 7.4]. Cells were incubated in 100 μl Tyrode buffer containing increasing concentrations of test peptides, 100 µM IBMX and 0.1% casein for 15 min at 37° C. The reaction was stopped by carefully decanting off the compound/buffer medium and replacing it with lysis/detection buffer (80 μl 0.1% w/v BSA, 5 mM HEPES, 0.3% v/v Tween-20 in deionized water). After incubation at room temperature for 10 min., the cAMP content of the resulting cell lysate was estimated according to the AlphaScreen® cAMP Assay manufacturer's instructions. EC50 values were estimated by computer-aided curve fitting using the 4-parameter logistic (4PL) non-linear model.

Structure (SMILES) | pEC50
CC[C@H](C)[C@@H](C(=O)N[C@@H](CC(C)C)C(=O)N[C@@H](CO)C(=O)N[C@@H](CO)C(=O)N[C@H](C(=O)N[C@@H](CCC(=O)O)C(=O)N[C@H](C(=O)NCC(=O)N[C@@H](CO)C(=O)N[C@@H](CC(N)=O)C(=O)N[C@H](C(=O)N1C[C@H](O)C[C@H]1C(N)=O)[C@@H](C)O)C(C)C)[C@@H](C)O)N(C)C(=O)[C@H](C)NC(=O)CN(C)C(=O)[C@H](Cc1ccccc1)NC(=O)[C@H](CO)NC(=O)[C@H](CO)NC(=O)[C@H](CCCNC(=N)N)NC(=O)[C@@H](NC(=O)[C@H](CC(C)C)NC(=O)[C@H](Cc1ccccc1)NC(=O)[C@H](CC(N)=O)NC(=O)[C@H](C)NC(=O)[C@H](CC(C)C)NC(=O)[C@H](CCCNC(=N)N)NC(=O)[C@H](CCC(=O)O)NC(=O)[C@@H](NC(=O)[C@H](C)NC(=O)[C@@H]1CSSC[C@H](NC(=O)[C@H](CCCNC(=N)N)NC(=O)CC[C@H](NC(=O)CCCCCCCCCCCCCCCCCCC(=O)O)C(=O)O)C(=O)NCC(=O)N[C@@H]([C@@H](C)O)C(=O)N[C@@H](C)C(=O)N[C@@H]([C@@H](C)O)C(=O)N1)[C@@H](C)O)C(C)C [Compound 17, [19CD]-isoGlu-R-C( )-GTAT-C( )-ATERLANFLVRSSF-Gly(Me)-A-Ile(Me)-LSSTEVGSNT-Hyp-NH2] ({C20 diacid-γGlu}-RCGTATCATERLANFLVRSSF[Sar]A[NMeI]LSSTEVGSNT[Hyp]-NH2; disulfide 2-7) | 9.89
CC[C@H](C)[C@@H](C(=O)N[C@@H](CC(C)C)C(=O)N[C@@H](CO)C(=O)N[C@@H](CO)C(=O)N[C@H](C(=O)N[C@@H](CCC(=O)O)C(=O)N[C@H](C(=O)NCC(=O)N[C@@H](CO)C(=O)N[C@@H](CO)C(=O)N[C@H](C(=O)N1C[C@H](N)C[C@H]1C(N)=O)[C@@H](C)O)C(C)C)[C@@H](C)O)N(C)C(=O)[C@H](C)NC(=O)CN(C)C(=O)[C@H](Cc1ccccc1)NC(=O)[C@H](CO)NC(=O)[C@H](CO)NC(=O)[C@H](CCCNC(=N)N)NC(=O)[C@@H](NC(=O)[C@H](CC(C)C)NC(=O)[C@H](Cc1ccccc1)NC(=O)[C@H](Cc1c[nH]cn1)NC(=O)[C@H](C)NC(=O)[C@H](CC(C)C)NC(=O)[C@H](CCCNC(=N)N)NC(=O)[C@H](CCC(=O)O)NC(=O)[C@@H](NC(=O)[C@H](C)NC(=O)[C@@H]1CSSC[C@H](NC(=O)[C@H](CCCNC(=N)N)NC(=O)CC[C@H](NC(=O)CCCCCCCCCCCCCCCCCCC(=O)O)C(=O)O)C(=O)NCC(=O)N[C@@H]([C@@H](C)O)C(=O)N[C@@H](C)C(=O)N[C@@H]([C@@H](C)O)C(=O)N1)[C@@H](C)O)[C@@H](C)O [Compound 45, [19CD]-isoGlu-R-C( )-GTAT-C( )-ATERLAHFLTRSSF-Gly(Me)-A-Ile(Me)-LSSTEVGSST-Apr-NH2] ({C20 diacid-γGlu}-RCGTATCATERLAHFLTRSSF[Sar]A[NMeI]LSSTEVGSST[Pro(4R-NH2)]-NH2; disulfide 2-7) | 9.80
CC[C@H](C)[C@@H](C(=O)N[C@@H](CC(C)C)C(=O)N[C@@H](CO)C(=O)N[C@@H](CO)C(=O)N[C@H](C(=O)N[C@@H](CCC(=O)O)C(=O)N[C@H](C(=O)NCC(=O)N[C@@H](CO)C(=O)N[C@@H](CC(N)=O)C(=O)N[C@H](C(=O)N1CCC[C@H]1C(N)=O)[C@@H](C)O)C(C)C)[C@@H](C)O)N(C)C(=O)[C@H](C)NC(=O)CN(C)C(=O)[C@H](Cc1ccccc1)NC(=O)[C@H](CO)NC(=O)[C@H](CO)NC(=O)[C@H](CCCNC(=N)N)NC(=O)[C@H](CCC(N)=O)NC(=O)[C@H](CC(C)C)NC(=O)[C@H](Cc1ccccc1)NC(=O)[C@H](Cc1c[nH]cn1)NC(=O)[C@H](C)NC(=O)[C@H](CC(C)C)NC(=O)[C@H](CCCNC(=N)N)NC(=O)[C@H](CCC(N)=O)NC(=O)[C@@H](NC(=O)[C@H](C)NC(=O)[C@@H]1CSSC[C@H](NC(=O)[C@H](CCCNC(=N)N)NC(=O)CC[C@H](NC(=O)CCCCCCCCCCCCCCCCCCC(=O)O)C(=O)O)C(=O)N[C@@H](CC(N)=O)C(=O)N[C@@H]([C@@H](C)O)C(=O)N[C@@H](C)C(=O)N[C@@H]([C@@H](C)O)C(=O)N1)[C@@H](C)O [Compound 61, [19CD]-isoGlu-R-C( )-NTAT-C( )-ATQRLAHFLQRSSF-Gly(Me)-A-Ile(Me)-LSSTEVGSNTP-NH2] ({C20 diacid-γGlu}-RCNTATCATQRLAHFLQRSSF[Sar]A[NMeI]LSSTEVGSNTP-NH2; disulfide 2-7) | 9.92
CC[C@H](C)[C@@H](C(=O)N[C@@H](CC(C)C)C(=O)N[C@@H](CO)C(=O)N[C@@H](CO)C(=O)N[C@H](C(=O)N[C@@H](CCC(=O)O)C(=O)N[C@H](C(=O)NCC(=O)N[C@@H](CO)C(=O)N[C@@H](CC(N)=O)C(=O)N[C@H](C(=O)N1C[C@H](O)C[C@H]1C(N)=O)[C@@H](C)O)C(C)C)[C@@H](C)O)N(C)C(=O)[C@H](C)NC(=O)CN(C)C(=O)[C@H](Cc1ccccc1)NC(=O)[C@H](CO)NC(=O)[C@H](CO)NC(=O)[C@H](CCCNC(=N)N)NC(=O)[C@H](CCC(N)=O)NC(=O)[C@H](CC(C)C)NC(=O)[C@H](Cc1ccccc1)NC(=O)[C@H](Cc1c[nH]cn1)NC(=O)[C@H](C)NC(=O)[C@H](CC(C)C)NC(=O)[C@H](CCCNC(=N)N)NC(=O)[C@H](CCC(=O)O)NC(=O)[C@@H](NC(=O)[C@H](C)NC(=O)[C@@H]1CSSC[C@H](NC(=O)[C@H](CCCNC(=N)N)NC(=O)CC[C@H](NC(=O)CCCCCCCCCCCCCCCCCCC(=O)O)C(=O)O)C(=O)N2CCC[C@H]2C(=O)N[C@@H]([C@@H](C)O)C(=O)N[C@@H](C)C(=O)N[C@@H]([C@@H](C)O)C(=O)N1)[C@@H](C)O [Compound 63, [19CD]-isoGlu-R-C( )-PTAT-C( )-ATERLAHFLQRSSF-Gly(Me)-A-Ile(Me)-LSSTEVGSNT-Hyp-NH2] ({C20 diacid-γGlu}-RCPTATCATERLAHFLQRSSF[Sar]A[NMeI]LSSTEVGSNT[Hyp]-NH2; disulfide 2-7) | 9.46
CC[C@H](C)[C@@H](C(=O)N[C@@H](CC(C)C)C(=O)N[C@@H](CO)C(=O)N[C@@H](CO)C(=O)N[C@H](C(=O)N[C@@H](CCC(=O)O)C(=O)N[C@H](C(=O)NCC(=O)N[C@@H](CO)C(=O)N[C@@H](CC(N)=O)C(=O)N[C@H](C(=O)N1CCC[C@H]1C(N)=O)[C@@H](C)O)C(C)C)[C@@H](C)O)N(C)C(=O)[C@H](C)NC(=O)CN(C)C(=O)[C@H](Cc1ccccc1)NC(=O)[C@H](CO)NC(=O)[C@H](CO)NC(=O)[C@H](CCCNC(=N)N)NC(=O)[C@H](CCC(N)=O)NC(=O)[C@H](CC(C)C)NC(=O)[C@H](Cc1ccccc1)NC(=O)[C@H](CC(=O)O)NC(=O)[C@H](C)NC(=O)[C@H](CC(C)C)NC(=O)[C@H](CCCNC(=N)N)NC(=O)[C@H](CCC(=O)O)NC(=O)[C@@H](NC(=O)[C@H](C)NC(=O)[C@@H]1CSSC[C@H](NC(=O)[C@H](CCCNC(=N)N)NC(=O)CC[C@H](NC(=O)CCCCCCCCCCCCCCCCCCC(=O)O)C(=O)O)C(=O)N2CCC[C@H]2C(=O)N[C@@H]([C@@H](C)O)C(=O)N[C@@H](C)C(=O)N[C@@H]([C@@H](C)O)C(=O)N1)[C@@H](C)O [Compound 67, [19CD]-isoGlu-R-C( )-PTAT-C( )-ATERLADFLQRSSF-Gly(Me)-A-Ile(Me)-LSSTEVGSNTP-NH2] ({C20 diacid-γGlu}-RCPTATCATERLADFLQRSSF[Sar]A[NMeI]LSSTEVGSNTP-NH2; disulfide 2-7) | 9.57
